{"source": "patent US20070087064A1", "about": "“Composition for preventing and treating climacteric symptoms comprising the extract of sophorae fructus” (DREXGENEBIOTECH CO., LTD., priority 2003, published 2007)", "key": {"[1]": {"tested_on": "Dpd (deoxypyridinoline)", "experiment": "Dpd concentration in blood plasma of ovari-ectomized rats", "assay_type": "in vivo, rat", "protocol": "(§1) For removal of ovary, a 12-week old white rat was anesthetized by ether. The rat got a shave on its back by a razor. Oophorectomy was performed after sterilizing the operating area with 70% ethanol. Particularly, skin was cut 2˜3 cm along the spinal column of the abdominal lower-flank region of one side, and then, muscle and peritoneum were incised 1.5 cm to exposure ovary. After ligating oviduct by a silk, the ovary was cut off and peritoneum, muscle and skin were sutured by a silk. The other side ovary was ectomized by the same procedure. Sham operation was performed for a control group, which opened peritoneum but sutured without taking ovary out. A period of recovery was 1 week.\nTest animals were classified into three groups; a normal group (non-ovari-ectomized group), a control group 1 (sham-operated group) and an ovari-ectomized group. […]\nDpd concentration in blood plasma obtained above was measured by competitive enzyme immunoassay using a Dpd concentration measuring kit (Pyrilinks-D, Quidel Corporation, USA) in which an anti-Dpd antibody was included. […] After reaction was finished, OD450 was measured. Then, Dpd concentration was calculated by using a calibration curve made to explain the relation between Dpd content and optical density (FIG. 11).\nBased on the result of the above Example <5-4>, changes of Dpd concentration after administering each sample for 9 weeks were quantified by the below formula. […]\nIn order to confim the effects of the extract of Sophorae Fructus of the present invention, Dpd concentrations in groups administered with the extract of Sophorae Fructus of the present invention were calculated by comparing with Dpd concentration in a control group 2 (ovari-ectomized) in which osteoporosis was progressed much. […]"}, "[2]": {"experiment": "Calcium concentration in blood plasma of ovari-ectomized rats, OCPC method", "assay_type": "in vivo, rat", "protocol": "as §1, with “week. Test animals were classified into three groups; a normal group (non-ovari-ectomized group), a control group 1 (sham-operated group) and an ovari-ectomized group. […] Therefore, measuring optical density of the magenta color leads to the quantification of calcium in a reagent. […]” for “week.”"}, "[3]": {"experiment": "Weight changes and weight gaining rate in ovari-ectomized rats", "assay_type": "in vivo, rat", "protocol": "As the experimental animals, white female SD (Sprague-Dawley) rats (230˜250 g) were purchased from Hallym Research Institute of Experimental animals (Kyunggido, Korea). The rats were raised at 23±1° C., under 40˜60% humidity and 12-hour light and shade cycle. Feed (solid feed, Hallym Research Institute of Experimental animals, Kyunggido, Korea) and water were given freely, but just water was supplied on the day before drawing blood. For removal of ovary, a 12-week old white rat was anesthetized by ether. The rat got a shave on its back by a razor. Oophorectomy was performed after sterilizing the operating area with 70% ethanol. Particularly, skin was cut 2˜3 cm along the spinal column of the abdominal lower-flank region of one side, and then, muscle and peritoneum were incised 1.5 cm to exposure ovary. After ligating oviduct by a silk, the ovary was cut off and peritoneum, muscle and skin were sutured by a silk. The other side ovary was ectomized by the same procedure. Sham operation was performed for a control group, which opened peritoneum but sutured without taking ovary out. A period of recovery was 1 week. Test animals were classified into three groups; a normal group (non-ovari-ectomized group), a control group 1 (sham-operated group) and an ovari-ectomized group. The ovari-ectomized group was sub-divided into a control group 2, which was not administered with a sample, a 17-beta estradiol treating group (E group), an extract of Sophorae Fructus of Example 1 administering group (R-G group), an enzyme extract of Sophorae Fructus of Example 2 administering group (R-A group), a food composition comprising the extract of Sophorae Fructus of Example 3 administering group (R-P group) and a soybean ex-powder administering group (S-S group) by 10 animals each (Table 1). […] Weights of each group of the above Example <5-2> were measured with an electronic scale, from which weight gaining rate per day was calculated by the below formula. […]"}, "[4]": {"tested_on": "IGF-1", "experiment": "IGF-1 secretion in osteoblasts, ELISA", "assay_type": "cell-based, human", "details": "MG-63 cells, 10^-4%", "protocol": "(§2) In order to investigate whether the extract of Sophorae Fructus of the present invention could stimulate the secretion of IGF-1 and TGF-beta in osteoblasts, each sample was treated to MG-63 human osteoblast-like cells by the same method as used in Example <4-4>, and then, ELISA and RT-PCR were performed to measure the secretion and the expression of IGF-1 and TGF-beta. The expression levels of IGF-1 and TGF-beta were represented by a comparative rate (%) to that of a control. ELISA was performed by using ELISA kit (Quantikine, R&D system) according to the provided protocol to investigate the secretion of IGF-1 and TGF-beta. Then, optical density was measured by the same method as used in the Example <4-4>. RT-PCR was also performed by the same method as used in the above Example <4-4>. Each primer used for the RT-PCR was presented below."}, "[5]": {"tested_on": "TGF-beta", "experiment": "TGF-beta secretion in osteoblasts, ELISA", "assay_type": "cell-based, human", "details": "MG-63 cells", "protocol": "as §2"}, "[6]": {"tested_on": "MG-63 human osteoblast-like cells", "experiment": "Osteoblast proliferation, MTT method", "assay_type": "cell-based", "details": "MG-63 cells, 72 hours", "protocol": "MG-63 human osteoblast-like cells were distributed from Korean Cell Line Bank of Seoul National University College of Medicine, Seoul, Korea, which were sub-cultured for fuirther use. The frozen MG-63 human osteoblast-like cells were melted in a 37° C. water bath for 1 minute, followed by centrifugation with 1300 rpm for 5 minutes to eliminate supernatant. The obtained pellet was re-suspended in DMEM supplemented with 10% FBS, which was, then, distributed in a […] culture flask for further culture. The duration of culture was 2 weeks for cell stability. After confirming under a microscope that a monolayer was stably formed, the cells were used for the experiments. In order to investigate the osteoblast proliferation after the treatment of an extract of Sophorae Fructus, MG-63 human osteoblast-like cells of the above Example <4-1> were treated with the Sophorae Fructus extract powder of Example 1 (R-G), the Sophorae Fructus enzyme extract powder of Example 2 (R-A), and the food composition comprising an extract of Sophorae Fructus of Example 3 (R-P), which were cultured for 3 days. The effects of the above extracts on cell proliferation were measured by MTT method. […] After complete mixing, color changes were checked and OD570 was measured using an ELISA plate reader within an hour."}}, "data": [{"smiles": "C[C@]12CC[C@@H]3c4ccc(O)cc4CC[C@H]3[C@@H]1CC[C@@H]2O", "note": "[E, 17-beta estradiol]", "values": [{"measurement": "Dpd concentration in blood plasma after 9 weeks of administration (10th week)", "setting": "[1]; 0.556 g/kg/day oral, E group 1 g/kg/day intraperitoneal", "result": "rapid drop of Dpd concentration"}, {"measurement": "decrease rate of Dpd, regarding the amount of decreased Dpd of E group as 100%", "setting": "[1]; 9 weeks administration", "result": 100, "unit": "%"}, {"measurement": "ΔDpd value (Dpd before administration versus after 9-week administration)", "setting": "[1]; negative = decrease of Dpd concentration", "result": "negative"}, {"measurement": "calcium concentration in blood plasma, 10 week", "setting": "[2]; after 9 weeks administration (0.556 g/kg/day oral; estradiol 1 g/kg/day intraperitoneal), mean ± SD", "result": "17.96 ± 1.334"}, {"measurement": "course of calcium concentration in blood plasma after start of administration", "setting": "[2]; from the first week on", "result": "rapid increase of calcium concentration"}, {"measurement": "Weight gaining rate (g/day)", "setting": "[3]; ovari-ectomized SD rats, 12 to 22 weeks old, 0.556 g/kg/day oral, E group 1 g/kg/day intraperitoneal, mean ± SD, * significant p < 0.05", "result": "1.0095 ± 0.1* g/day"}, {"measurement": "Weight (g): Final weight (22 weeks old)", "setting": "[3]; ovari-ectomized SD rats, after 9 weeks administration (0.556 g/kg/day oral; E group 1 g/kg/day intraperitoneal), mean ± SD", "result": "302.4 ± 29.885", "unit": "g"}, {"measurement": "weight gaining after removal of ovary", "setting": "[3]; ovari-ectomized rats, versus rapid weight gaining in control group 2", "result": "slow"}, {"measurement": "IGF-1 concentration (ELISA), comparison of groups", "setting": "[4]", "result": "highest IFG-1 concentration"}, {"measurement": "TGF-beta concentration (ELISA)", "setting": "[5]; 10^-4 to 10^-10%", "result": "evenly higher TGF-beta concentration"}, {"measurement": "TGF-beta concentration / secretion promoting activity (ELISA)", "setting": "[5]; minimum concentration 10^-12%", "result": "decreased to the similar level to that in a control group"}, {"measurement": "osteoblast proliferation effect (MTT, OD570)", "setting": "[6]; 10^-4 to 10^-12%", "result": "cell proliferation depended on its concentration"}, {"measurement": "osteoblast proliferation at low concentration versus high concentration", "setting": "[6]; low concentration 10^-10% (estradiol 10^-10% and 10^-12%)", "result": "proliferation decreased"}]}]}
